Laboratory results reported in ChEMBL document CHEMBL3763010, “Inhibition of monoamine oxidase by benzoxathiolone analogues” (Bioorg Med Chem Lett, 2016).
pIC50, pKi: −log10 of the molar value.

Legend:
[1] = biological target: T1, Amine oxidase [flavin-containing] B (Homo sapiens, UniProt P27338)
T1 sequence (P27338 whole entry): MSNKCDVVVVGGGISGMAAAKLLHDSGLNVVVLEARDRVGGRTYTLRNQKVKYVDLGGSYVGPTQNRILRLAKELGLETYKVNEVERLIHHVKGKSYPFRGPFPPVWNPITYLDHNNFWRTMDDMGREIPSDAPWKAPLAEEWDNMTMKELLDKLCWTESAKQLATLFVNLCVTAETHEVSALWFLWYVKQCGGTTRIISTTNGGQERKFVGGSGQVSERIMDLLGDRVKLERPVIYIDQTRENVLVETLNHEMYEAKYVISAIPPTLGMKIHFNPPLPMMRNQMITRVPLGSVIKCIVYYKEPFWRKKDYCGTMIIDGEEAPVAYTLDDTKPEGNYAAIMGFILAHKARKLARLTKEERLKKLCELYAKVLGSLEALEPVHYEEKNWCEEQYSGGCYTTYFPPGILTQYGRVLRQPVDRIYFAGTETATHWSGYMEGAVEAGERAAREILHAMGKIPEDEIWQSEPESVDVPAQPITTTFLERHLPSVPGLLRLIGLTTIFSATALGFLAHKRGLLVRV
Description: Inhibition of recombinant human MAO-B after 20 mins using 50 uM kynuramine as substrate by fluorescence spectrophotometry

[2] = biological target: T2, Amine oxidase [flavin-containing] A (Homo sapiens, UniProt P21397)
T2 sequence (P21397 whole entry): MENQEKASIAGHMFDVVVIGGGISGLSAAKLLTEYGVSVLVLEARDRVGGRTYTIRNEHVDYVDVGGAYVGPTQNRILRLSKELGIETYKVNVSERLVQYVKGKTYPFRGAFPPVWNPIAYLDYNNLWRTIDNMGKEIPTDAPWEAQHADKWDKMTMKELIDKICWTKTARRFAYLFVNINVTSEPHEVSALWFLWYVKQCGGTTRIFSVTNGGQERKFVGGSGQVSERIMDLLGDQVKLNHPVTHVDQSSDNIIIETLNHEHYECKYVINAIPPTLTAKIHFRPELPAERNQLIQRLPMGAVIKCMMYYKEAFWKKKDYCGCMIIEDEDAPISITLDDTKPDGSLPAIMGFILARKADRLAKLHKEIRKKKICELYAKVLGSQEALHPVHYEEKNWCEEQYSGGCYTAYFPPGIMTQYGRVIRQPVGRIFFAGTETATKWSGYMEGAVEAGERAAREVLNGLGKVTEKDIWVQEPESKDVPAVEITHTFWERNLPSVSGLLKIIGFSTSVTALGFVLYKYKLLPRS
Description: Inhibition of recombinant human MAO-A after 20 mins using 50 uM kynuramine as substrate by fluorescence spectrophotometry

[3] = Lipophilicity, logP of the compound by shake-flask method; type: physicochemical; conditions: octanol/water
Homo sapiens = organism: Homo sapiens; test: Selectivity index, ratio of IC50 for recombinant human MAO-A to recombinant human MAO-B
[4] = biological target: T1, Amine oxidase [flavin-containing] B; test: Inhibition of recombinant human MAO-B pretreated with compound for 15 mins followed by addition of 50 uM kynuramine as substrate by Michaelis-Menten method
[5] = biological target: T2, Amine oxidase [flavin-containing] A; test: Inhibition of recombinant human MAO-A activity pretreated with compound for 15 mins followed by addition of 50 uM kynuramine as substrate by Michaelis-Menten method
[6] = biological target: T1, Amine oxidase [flavin-containing] B; test: Competition inhibition of recombinant human MAO-B pretreated with compound for 15 mins followed by addition of 50 uM kynuramine as substrate by Lineweaver-Burk plot method
[7] = biological target: T2, Amine oxidase [flavin-containing] A; test: Competition inhibition of recombinant human MAO-A pretreated with compound for 15 mins followed by addition of 50 uM kynuramine as substrate by Lineweaver-Burk plot method
[8] = biological target: T2, Amine oxidase [flavin-containing] A; test: Reversible inhibition of recombinant human MAO-A assessed as enzyme activity recovered pretreated with compound for 15 mins followed by addition of 50 uM kynuramine as substrate measured after 24 hrs by dialysis; set-up: scale not given: the % may be the effect or the level left
[9] = biological target: T1, Amine oxidase [flavin-containing] B; test: Inhibition of recombinant human MAO-B assessed as enzyme activity pretreated with compound for 15 mins followed by addition of 50 uM kynuramine as substrate measured after 24 hrs; set-up: scale not given: the % may be the effect or the level left
[10] = biological target: T2, Amine oxidase [flavin-containing] A; test: Inhibition of recombinant human MAO-A assessed as enzyme activity pretreated with compound for 15 mins followed by addition of 50 uM kynuramine as substrate measured after 24 hrs; set-up: scale not given: the % may be the effect or the level left

Compound	pIC50 [1]	pIC50 [2]	logP [3]	Ratio IC50 (Homo sapiens)	pKi [4]	pKi [5]	pKi [6]	pKi [7]	Activity [9]	Activity [10]	Activity [8]
O=c1oc2cc(OCc3ccc(Cl)cc3)ccc2s1	8.52	6.72	5.61	63	8.41	6.25	8.46	6.44	39%	73%	93%
O=c1oc2cc(O)ccc2s1 [TIOXOLONE]	5.02	5.01		1							
C#CCN(C)Cc1ccccc1 [PARGYLINE]											0.9%

Continued by rising pIC50 [1], values first:

pIC50 [1]	pIC50 [2]	logP [3]	Ratio IC50 (Homo sapiens)	pKi [4]	pKi [5]	pKi [6]	pKi [7]	Activity [9]	Activity [10]	Compound	Activity [8]
7.21	4.57									O=C1OCc2cc(OCc3ccccc3)ccc21	
7.29	5.29	3.8	101							O=c1oc2cc(OCc3ccccc3)ccc2s1	
